# Measurements published in patent US20250092065A1, “2-(INDAZOL-5-YL)-6-(PIPERIDIN-4-YL)-1,7-NAPHTHYRIDINE DERIVATIVES AND RELATED COMPOUNDS AS MODULATORS FOR SPLICING NUCLEIC ACIDS AND FOR THE TREATMENT OF PROLIFERATIVE DISEASES” (REMIX THERAPEUTICS INC., priority 2022, published 2025).
# Structures can show the parent of a compound that is named as a salt. Where two headings read alike, the source gives them in different places.
# Tests used:
# Type in all cases: cell-based, human
# [1] = tested on: MYB; assay: HiBiT protein abundance assay, MYB (K562 HiBiT knock-in); conditions: HiBiT knock-in K562 cells, 24 hours, top dose 10 μM
# How it was run: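 Luminescence readout: Nano-Glo HiBiT lytic detection after 24 h compound exposure of K562 HiBiT knock-in cells, 10000 cells/well. Dosing 10-pt, 3-fold, top 10 μM final. % response vs untreated parental K562 and DMSO controls; 4PL fit, IC50 = concentration giving 50% protein abundance.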
# [2] = tested on: SMN2 mRNA; assay: RT-qPCR splicing assay, SMN2 mRNA; conditions: Homo sapiens, canonical junction qPCR panel, Table 4; read-out: SMN2 IC50 (decrease in CJ mRNA levels)
# How it was run: (§1)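 Splice switching quantified in compound-treated A673/K562 cells after 24 h exposure (top dose 10 uM, 3-fold steps, ≤0.25% DMSO), using CJ and AJ qPCR assays run at least in duplicate. RQ derived by 2^(−ΔΔCt), then percentage response.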
# [3] = tested on: HTT mRNA; assay: RT-qPCR splicing assay, HTT mRNA canonical (CJ) and alternative (AJ) junction; conditions: Homo sapiens; for AC50: HTT alternative junction mRNA, read-out: HTT AJ (increase in AJ mRNA, AC50)
# How it was run: as §1
# [4] = tested on: MYB mRNA; assay: RT-qPCR splicing assay, MYB mRNA canonical (CJ) and alternative (AJ) junction; conditions: Homo sapiens; for AC50: MYB alternative junction mRNA, read-out: MYB AJ (increase in AJ mRNA, AC50)
# How it was run: as §1
# [5] = HTT canonical junction mRNA, RT-qPCR, read-out: HTT CJ (decrease in CJ mRNA levels, IC50)
# [6] = canonical junction qPCR panel, Table 4, read-out: HTT IC50 (decrease in CJ mRNA levels)
# [7] = MYB canonical junction mRNA, RT-qPCR, read-out: MYB CJ (decrease in CJ mRNA levels, IC50)
# [8] = canonical junction qPCR panel, Table 4, read-out: MYB IC50 (decrease in CJ mRNA levels)
SMILES,IC50 [1] [nM],IC50 [2] [nM],"IC50 [3, 5] [nM]","IC50 [3, 6] [nM]","IC50 [4, 7] [nM]","IC50 [4, 8] [nM]",AC50 ([3]; RT-qPCR) [nM],AC50 ([4]; RT-qPCR) [nM]
CNC1CCN(c2ccc3nc(-c4cc5oc(C)nc5cc4O)ccc3n2)CC1 [Compound 425],1000 to 10000,100 to 1000,1000 to 10000,1000 to 10000,1000 to 10000,1000 to 10000,1000 to 10000,1000 to 10000
"Cc1nc2c(C)c(O)c(-c3ccc4nc(N5CC[C@H](NC6CC6)C5)ncc4n3)cc2o1 [Compound 433, 6-{2-[(3S)-3-(cyclopropylamino)pyrrolidin-1-yl]pyrido[3,2-d]pyrimidin-6-yl}-2,4-dimethyl-1,3-benzoxazol-5-ol]",100 to 1000,< 100,< 100,< 100,100 to 1000,100 to 1000,< 100,100 to 1000
"Cc1nc2cc(O)c(-c3ccc4nc(N5CC[C@H](NC6CC6)C5)ncc4n3)cc2o1 [Compound 435, 6-{2-[(3S)-3-(cyclopropylamino)pyrrolidin-1-yl]pyrido[3,2-d]pyrimidin-6-yl}-2-methyl-1,3-benzoxazol-5-ol]",100 to 1000,< 100,100 to 1000,100 to 1000,100 to 1000,100 to 1000,100 to 1000,100 to 1000
Cc1nc2c(C)c(O)c(-c3ccc4nc(N5CC[C@@H](NC(C)(C)C)C5)ncc4n3)cc2o1 [Compound 436],< 100,< 100,< 100,< 100,< 100,< 100,< 100,< 100
Cc1nc2c(C)c(O)c(-c3ccc4nc(N5CC[C@H](NC(C)(C)C)C5)ncc4n3)cc2o1 [Compound 437],100 to 1000,100 to 1000,< 100,< 100,100 to 1000,100 to 1000,< 100,100 to 1000
"Cc1c(O)c(-c2ccc3nc(N4CC[C@@H](NC5CC5)C4)ncc3n2)cc2cn(C)nc12 [Compound 438, 5-{2-[(3R)-3-(cyclopropylamino)pyrrolidin-1-yl]pyrido[3,2-d]pyrimidin-6-yl}-2,7-dimethylindazol-6-ol]",100 to 1000,< 100,< 100,< 100,100 to 1000,100 to 1000,< 100,< 100
"Cn1cc2cc(-c3ccc4nc(C5CCNC6(CC6)C5)ncc4n3)c(O)cc2n1 (stereo not drawn) [Compound 448, 5-(2-{4-azaspiro[2.5]octan-7-yl}pyrido[3,2-d]pyrimidin-6-yl)-2-methylindazol-6-ol]",100 to 1000,< 100,100 to 1000,100 to 1000,100 to 1000,100 to 1000,1000 to 10000,1000 to 10000

# The next lines start with results.
IC50 [1] [nM],IC50 [2] [nM],"IC50 [3, 5] [nM]","IC50 [3, 6] [nM]","IC50 [4, 7] [nM]","IC50 [4, 8] [nM]",SMILES,AC50 ([3]; RT-qPCR) [nM],AC50 ([4]; RT-qPCR) [nM]
100 to 1000,< 100,< 100,< 100,100 to 1000,100 to 1000,"Cc1c(O)c(-c2ccc3nc(N4CC[C@H](NC5CC5)C4)ncc3n2)cc2cn(C)nc12 [Compound 439, 5-{2-[(3S)-3-(cyclopropylamino)pyrrolidin-1-yl]pyrido[3,2-d]pyrimidin-6-yl}-2,7-dimethylindazol-6-ol]",< 100,100 to 1000
100 to 1000,< 100,< 100,< 100,100 to 1000,100 to 1000,"Cc1nc2c(C)c(O)c(-c3ccc4cc(N5CC[C@@H](NC6CC6)C5)ncc4n3)cc2o1 [Compound 440, 6-{6-[(3R)-3-(cyclopropylamino)pyrrolidin-1-yl]-1,7-naphthyridin-2-yl}-2,4-dimethyl-1,3-benzoxazol-5-ol]",100 to 1000,100 to 1000
1000 to 10000,< 100,< 100,< 100,100 to 1000,100 to 1000,"Cc1nc2c(C)c(O)c(-c3ccc4cc(N5CC[C@H](NC6CC6)C5)ncc4n3)cc2o1 [Compound 441, 6-{6-[(3S)-3-(cyclopropylamino)pyrrolidin-1-yl]-1,7-naphthyridin-2-yl}-2,4-dimethyl-1,3-benzoxazol-5-ol]",100 to 1000,100 to 1000
100 to 1000,< 100,1000 to 10000,1000 to 10000,100 to 1000,100 to 1000,"Cn1cc2cc(-c3ccc4cc(N5CCC(NC(C)(C)C)C5)ncc4n3)c(O)cc2n1 (stereo not drawn) [Compound 449, 5-{6-[3-(tert-butylamino)pyrrolidin-1-yl]-1,7-naphthyridin-2-yl}-2-methylindazol-6-ol]",1000 to 10000,100 to 1000
1000 to 10000,1000 to 10000,1000 to 10000,1000 to 10000,1000 to 10000,1000 to 10000,Cc1nc2cc(O)c(-c3ccc4cc(N5CC[C@H](NC(C)(C)C)C5)ncc4n3)cc2o1 [Compound 450],1000 to 10000,1000 to 10000
< 100,< 100,< 100,< 100,< 100,< 100,"Cc1c(O)c(-c2cc(Cl)c3cc(N4CCNCC4)cc(C)c3n2)cc2cn(C)nc12 [Compound 482, 5-[4-chloro-8-methyl-6-(piperazin-1-yl)577yrrolidi-2-yl]-2,7-dimethylindazol-6-ol hydrochloride]",100 to 1000,< 100
100 to 1000,< 100,> 10000,> 10000,100 to 1000,100 to 1000,"Cc1cc2nc(-c3cc4cn(C)nc4c(C)c3O)cc(Cl)c2cc1N1CCNCC1 [Compound 484, 5-[4-chloro-7-methyl-6-(piperazin-1-yl)586yrrolidi-2-yl]-2,7-dimethylindazol-6-ol]",> 10000,100 to 1000
100 to 1000,< 100,1000 to 10000,1000 to 10000,100 to 1000,100 to 1000,"CNC1CCN(c2cc3c(Cl)cc(-c4cc5cn(C)nc5c(C)c4O)nc3cc2C)C1 (stereo not drawn) [Compound 486, 5-{4-chloro-7-methyl-6-[3-(methylamino)pyrrolidin-1-yl]quinolin-2-yl}-2,7-dimethylindazol-6-ol]",1000 to 10000,100 to 1000
